Measurements taken from US4404230A, “4-Hydroxy-1,2-Benzisothiazol-3(2H)-one-1,1-dioxides and salts thereof” (priority 1980, dated 1983).

Legend:
anesthetized cats = assay: Effect on the blood circulation in anesthetized cats; assay type: in vivo; conditions: 10 mg/kg i.v.
Procedure: In 3 adult anesthetized cats the following parameters were measured:
The arterial blood pressure in the Arteria carotis by means of a Statham pressure transducer;
The heart rate by means of a Grass-tachograph;
The respiration rate by means of a Fleisch pneumotachograph;
10 mg/kg of substance B as a solution in aqua dist. were administered i.v.

rats [1] = assay: Test for subacute toxicity in the rat; assay type: in vivo, Chbb:Thom-rats; conditions: 750 mg/kg daily, 5 weeks
Procedure: The test was carried out on 10 male and 10 female Chbb:Thom-rats. During a period of 5 weeks 750 mg/kg of substance B were administered to the animals daily. […] After the 5 weeks the animals were killed, and the following organs were dissected for histological examination: heart, lungs, liver, spleen, suprarenals, brain, kidney and pancreas.

rats [2] = assay: Effect on choleresis in rats; assay type: in vivo, Chbb:THOM-rats
Procedure: A cannula was tied to the ductus choledochus of anesthetized, fasted male Chbb:THOM-rats (SPF) having a body weight of 180-220 gm, and the rate of flow of bile liquid was registered via a drop counter. 100 or 200 mg/kg of substance B in aqua dist. solution were administered intraduodenally to each of 10 animals. A control group received only the solvent. The number of the drops received within 1 hour before the treatment was compared with the number of the drops received within 1-5 hours after treatment.
In Table 10 the average number of drops 1-5 hours after treatment is shown in percent, compared with the values before treatment.

Mouse = assay: Test for acute toxicity, mouse; conditions: for Animals which died: 10 animals
Procedure: (§1) The acute toxicity was determined after oral administration of substance B to male and female mice, rats and dogs. The substance was administered to mice and rats in the form of a suspension in tylose and to dogs in the form of a solution in water.

Dog = assay: Test for acute toxicity, dog; conditions: for Animals which died: 2 animals
Procedure: as §1

rats [3] = assay: Effect on diuresis in water-loaded rats; assay type: in vivo, Chbb:THOM-rats; conditions: for Cl^- excretion / K^+ excretion / Na^+ excretion / Urine: 5 hours
Procedure: Male Chbb:THOM-rats (SPF) having a body weight of 180-210 gm were kept away from food with free access to water for 24 hours before the test. Substance B was administered orally at dosages of 50, 100 and 200 mg/kg in aqua dist. solution of the rate of 1 ml/100 gm body weight to 6 animals/dose. Additionally, 4 ml water/100 gm body weight were administered orally. A control group received only the solvent and the same additional amount of water.
Five hours after treatment, the excreted volume of urine of each group was measured, and the concentration of Na^+, K^+ and Cl^- was determined photometrically and complexometrically.

Rat = assay: Test for acute toxicity, rat; conditions: for Animals which died: 6 animals
Procedure: as §1

eye of the rabbit = assay: Local compatibility in the eye of the rabbit (mucosa compatibility); assay type: in vivo
Excerpt: Groups of 4 rabbits each of both sexes were given 1 drop of a 1% solution of substance B in aqua dist. into the conjunctival sack of the eye. […] The second eye of each animal served as control.

[4] = system: Pseudomonas aeruginosa Hbg.; assay: Bacteriostasis, serial dilution test; assay type: cell-based; conditions: 320 μg/ml
Procedure: (§2) Substance B was tested with regard to its bacteria- and fungi-inhibiting effect by the serial dilution test and agar diffusion test.

[5] = system: Escherichia coli ATCC 9637; assay: Bacteriostasis, serial dilution test; assay type: cell-based; conditions: 320 μg/ml
Procedure: as §2

[6] = system: Staphylococcus aureus SG 511; assay: Bacteriostasis, serial dilution test; assay type: cell-based; conditions: 320 μg/ml
Procedure: as §2

Sc. pyogenes ATCC 8688 = assay: Bacteriostasis, serial dilution test; assay type: cell-based; conditions: 320 μg/ml
Procedure: as §2

Streptococcus Aronson = assay: Bacteriostasis, serial dilution test; assay type: cell-based; conditions: 320 μg/ml
Procedure: as §2

[7] = system: Serratia marcescens ATCC 13880; assay: Bacteriostasis, serial dilution test; assay type: cell-based; conditions: 320 μg/ml
Procedure: as §2

[8] = vs values before administration, N = 3
[9] = 10 g/kg oral, during the observation time

Question: What does the source list for `O=C1NS(=O)(=O)c2cccc(O)c21.[Na]`?
Answer: effect on arterial blood pressure, heart rate and respiration rate (in words) (anesthetized cats): does not show any effect on the arterial blood pressure, the heart rate and the respiration rate; Change in % blood pressure (anesthetized cats; [8]): +1%; Change in % heart rate (anesthetized cats; [8]): -1%; Change in % respiration rate (anesthetized cats; [8]): -2%; behavior (rats [1]): normal behavior; spontaneous deaths (rats [1]): No spontaneous deaths could be observed; histological examination of organs (rats [1]; heart, lungs, liver, spleen, suprarenals, brain, kidney, pancreas): did not show any pathological findings; Choleresis in %, compared with the values before treatment (rats [2]; 100 mg/kg i.d., 1 hour): 97%; Choleresis, average number of drops (rats [2]; 100 mg/kg i.d., 1 hour): 53.3 drops/ hr; Choleresis in %, compared with the values before treatment (rats [2]; 100 mg/kg i.d., 2 hours): 94%; Choleresis, average number of drops (rats [2]; 100 mg/kg i.d., 2 hours): 51.7 drops/ hr; Choleresis in %, compared with the values before treatment (rats [2]; 100 mg/kg i.d., 3 hours): 92%; Choleresis, average number of drops (rats [2]; 100 mg/kg i.d., 3 hours): 50.7 drops/ hr; Choleresis in %, compared with the values before treatment (rats [2]; 100 mg/kg i.d., 4 hours): 91%; Choleresis, average number of drops (rats [2]; 100 mg/kg i.d., 4 hours): 49.9 drops/ hr; Choleresis in %, compared with the values before treatment (rats [2]; 100 mg/kg i.d., 5 hours): 90%; Choleresis, average number of drops (rats [2]; 100 mg/kg i.d., 5 hours): 49.5 drops/ hr; Choleresis in %, compared with the values before treatment (rats [2]; 200 mg/kg i.d., 1 hour): 94%; Choleresis, average number of drops (rats [2]; 200 mg/kg i.d., 1 hour): 44.1 drops/ hr; Choleresis in %, compared with the values before treatment (rats [2]; 200 mg/kg i.d., 2 hours): 92%; Choleresis, average number of drops (rats [2]; 200 mg/kg i.d., 2 hours): 43.1 drops/ hr; Choleresis in %, compared with the values before treatment (rats [2]; 200 mg/kg i.d., 3 hours): 92%; Choleresis, average number of drops (rats [2]; 200 mg/kg i.d., 3 hours): 43.1 drops/ hr; Choleresis in %, compared with the values before treatment (rats [2]; 200 mg/kg i.d., 4 hours): 92%; Choleresis, average number of drops (rats [2]; 200 mg/kg i.d., 4 hours): 43.5 drops/ hr; Choleresis in %, compared with the values before treatment (rats [2]; 200 mg/kg i.d., 5 hours): 94%; Choleresis, average number of drops (rats [2]; 200 mg/kg i.d., 5 hours): 44.4 drops/ hr; effect on choleresis (in words) (rats [2]; 100 and 200 mg/kg i.d.): does not show any intraduodenal effects on choleresis in rats; Animals which died (Mouse; 10 g/kg oral, 1 day): 0; Animals which died (Mouse; 10 g/kg oral, 7 days): 0; Animals which died (Mouse; 10 g/kg oral, 14 days): 0; deaths (in words) (Mouse; [9]): no animals died; behavior (Mouse; mouse, in vivo, po): completely normal behavior; toxic symptoms (Mouse; mouse, in vivo, po): no toxic symptoms could be observed; Animals which died (Dog; 5 g/kg oral, 1 day): 0; Animals which died (Dog; 5 g/kg oral, 7 days): 0; Animals which died (Dog; 5 g/kg oral, 14 days): 0; deaths (in words) (Dog; 5 g/kg oral, during the observation time): no animals died; behavior (Dog; dog, in vivo, po): completely normal behavior; toxic symptoms (Dog; dog, in vivo, po): no toxic symptoms could be observed; Cl^- excretion (rats [3]; 50 mg/kg p.o.): 616.4 Microval/kg; K^+ excretion (rats [3]; 50 mg/kg p.o.): 456.6 Microval/kg; Na^+ excretion (rats [3]; 50 mg/kg p.o.): 456.6 Microval/kg; Urine (rats [3]; 50 mg/kg p.o.): 45.7 mL/kg; Cl^- excretion (rats [3]; 100 mg/kg p.o.): 325.5 Microval/kg; K^+ excretion (rats [3]; 100 mg/kg p.o.): 321.5 Microval/kg; Na^+ excretion (rats [3]; 100 mg/kg p.o.): 401.9 Microval/kg; Urine (rats [3]; 100 mg/kg p.o.): 40.2 mL/kg; Cl^- excretion (rats [3]; 200 mg/kg p.o.): 535.7 Microval/kg; K^+ excretion (rats [3]; 200 mg/kg p.o.): 425.1 Microval/kg; Na^+ excretion (rats [3]; 200 mg/kg p.o.): 467.6 Microval/kg; Urine (rats [3]; 200 mg/kg p.o.): 42.5 mL/kg; effect on diuresis (in words) (rats [3]; 50, 100 and 200 mg/kg p.o.): does not show any effect on diuresis in rats; Animals which died (Rat; 10 g/kg oral, 1 day): 0; Animals which died (Rat; 10 g/kg oral, 7 days): 0; Animals which died (Rat; 10 g/kg oral, 14 days): 0; deaths (in words) (Rat; [9]): no animals died; behavior (Rat; rat, in vivo, po): completely normal behavior; toxic symptoms (Rat; rat, in vivo, po): no toxic symptoms could be observed; change in the pupil (eye of the rabbit; 1% solution): no change in the pupil; irritation of the conjunctiva (eye of the rabbit; 1% solution): No irritation of the conjunctiva; change in the pupil (eye of the rabbit; 10%): no change in the pupil; irritation of the conjunctiva (eye of the rabbit; 10%): No irritation of the conjunctiva; incompatibility when dropped into the eye (in words) (eye of the rabbit; rabbit, in vivo): does not show any incompatibility; inhibiting effect [4]: did not show any inhibiting effect; inhibiting effect [5]: did not show any inhibiting effect; inhibiting effect [6]: did not show any inhibiting effect; inhibiting effect (Sc. pyogenes ATCC 8688): did not show any inhibiting effect; inhibiting effect (Streptococcus Aronson): did not show any inhibiting effect; inhibiting effect [7]: did not show any inhibiting effect
